Some test systems named below: SNB-75; UACC-257; HOP-92; KM-20L2; NCI-H460; SK-MEL-28; U-251; M14; A498; HT-29; ACHN; IGROV-1; NCI-H226; OVCAR-5; DU-145; MCF7; PC-3; Hs-578T; MDA-MB-231; BT-549.
What all share (assay): DTP human tumour cell line panel, 48 h

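Assay format: 96-well plates, 48-hour exposure. Abbreviation: GI50, concentration required for 50% inhibition of growth.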 Active and inactive are the calls of the source. Cut-off read from the data, not from the text of the source: active = GI50 up to about 1.1 µM and inactive = higher.

Regarding `COc1cc(/C=C2/C(=O)N(C(=O)OCc3ccccc3)C(Cc3cc(OC)c(OC)c(C)c3OC)C(=O)N2Cc2ccccc2)c(OC)c(C)c1OC` (stereo unspecified), the GI50 – broadly, the concentration at which growth is held to half of that of the control – in the assay with SNB-75 was > 100 µM (inactive); in the assay on UACC-257, 9.48 µM (inactive); in the assay on HOP-92, 2.64 µM (inactive); with KM-20L2, > 100 µM (inactive); in the assay with NCI-H460, 3.52 µM (inactive); in the assay on SK-MEL-28, > 100 µM (inactive). In addition, the GI50 with U-251 is 33.1 µM (inactive); with M14 it was > 100 µM (inactive); in the assay on A498 it was 88.7 µM (inactive); with HT-29, > 100 µM (inactive); in the assay on ACHN, > 100 µM (inactive); in the assay with IGROV-1 it was > 100 µM (inactive). Also, the results for the GI50 in the assay with NCI-H226 and with OVCAR-5 were 2 µM (inactive) and > 100 µM (inactive), respectively.
Regarding `CS/C(=N/C(=O)c1ccccc1)SCCS/C(=N\C(=O)c1ccccc1)SC`, the GI50 in the assay with SNB-75 was 33.8 µM (inactive); in the assay on UACC-257, > 100 µM (inactive); with HOP-92 it was 20 µM (inactive); with KM-20L2 it was > 100 µM (inactive); in the assay on NCI-H460, > 100 µM (inactive); with SK-MEL-28 it was > 100 µM (inactive). For the same compound, the GI50 with U-251, in the assay on M14, in the assay on A498, in the assay with HT-29, in the assay on ACHN and in the assay on IGROV-1 was > 100 µM (inactive) each time. The GI50 in the assay on NCI-H226 and in the assay with OVCAR-5 was > 100 µM (inactive) each time.
For the compound `COc1ccc(C(=O)O/N=C2/CCC/C2=C\c2ccccc2)cc1`, the GI50 in the assay on SNB-75 was > 43.3 µM (inactive); in the assay on UACC-257, > 100 µM (inactive); in the assay on HOP-92, > 100 µM (inactive); in the assay with KM-20L2, > 100 µM (inactive); in the assay on NCI-H460, > 100 µM (inactive); in the assay with SK-MEL-28, > 100 µM (inactive). Further, the GI50 in the assay with U-251 was > 70.3 µM (inactive); with M14 it was > 100 µM (inactive); in the assay with A498, > 100 µM (inactive); in the assay on HT-29 it was > 100 µM (inactive); in the assay with ACHN, > 94.8 µM (inactive); with IGROV-1 it was > 73.6 µM (inactive). The GI50 in the assay on NCI-H226 and with OVCAR-5 was > 100 µM (inactive) throughout.
Regarding `CCOC(=O)/C(=C\c1ccc(O)c(OC)c1)C(=O)c1ccccc1`, the GI50 in the assay with SNB-75 is 20.2 µM (inactive); in the assay with UACC-257, 18.4 µM (inactive); with HOP-92, 21.3 µM (inactive); in the assay with DU-145 it was 23.1 µM (inactive); with KM-20L2, > 41.7 µM (inactive); in the assay on NCI-H460, 22.2 µM (inactive). The GI50 in the assay with SK-MEL-28 is 9.75 µM (inactive); in the assay with U-251, 13.5 µM (inactive); in the assay with M14, 19.1 µM (inactive); with A498, 17 µM (inactive); with HT-29, 24.7 µM (inactive); in the assay with ACHN it was 15.8 µM (inactive). The GI50 is 19.2 µM (inactive) in the assay on IGROV-1, 23.2 µM (inactive) in the assay with NCI-H226 and 26.8 µM (inactive) in the assay on OVCAR-5.
Regarding `OCCCc1cnco1`, the GI50 in the assay with SNB-75, in the assay on UACC-257, in the assay on HOP-92, with KM-20L2, in the assay on NCI-H460 and in the assay on SK-MEL-28 was > 100 µM (inactive) each time. The GI50 in the assay on U-251, with M14, in the assay on A498, in the assay on HT-29, in the assay with ACHN and in the assay on IGROV-1 was > 100 µM (inactive) each time. For the same compound, the GI50 in the assay on NCI-H226 and with OVCAR-5 was > 100 µM (inactive) throughout.
Regarding `COC1=CC(O)(CC(N)=O)c2ccccc2C1=O` (stereo unspecified), the GI50 in the assay with SNB-75, in the assay with UACC-257, in the assay on HOP-92, in the assay on KM-20L2, in the assay on NCI-H460 and with SK-MEL-28 was > 100 µM (inactive) throughout. Further, the GI50 in the assay on U-251, in the assay with M14, in the assay on A498, in the assay on HT-29, in the assay with ACHN and in the assay on IGROV-1 was > 100 µM (inactive) each time. The GI50 in the assay with NCI-H226 and in the assay on OVCAR-5 was > 100 µM (inactive) in each case.
On to `CC(=O)NC(CCCCNC(=O)OCc1ccccc1)C(=O)NCc1ccccc1` (stereo unspecified), for which the GI50 with SNB-75 is 31.7 µM (inactive); in the assay with UACC-257 it was > 100 µM (inactive); in the assay on HOP-92 it was > 100 µM (inactive); with KM-20L2 it was > 100 µM (inactive); in the assay with NCI-H460, > 100 µM (inactive); in the assay with SK-MEL-28, > 100 µM (inactive). For the same compound, the GI50 in the assay on U-251, in the assay with M14, in the assay on A498, in the assay with HT-29, in the assay with ACHN and in the assay on IGROV-1 was > 100 µM (inactive) each time. In addition, the GI50 with NCI-H226 and in the assay with OVCAR-5 was > 100 µM (inactive) in each case.
`O=C1O/C(=C(/c2ccc(Cl)cc2)c2nc3ccccc3[nH]2)C(O)=C1c1ccc(Cl)cc1`: the GI50 is 2.69 µM (inactive) with SNB-75; 2.03 µM (inactive) in the assay with UACC-257; 1.32 µM (inactive) with HOP-92; 2.38 µM (inactive) with KM-20L2; 2.73 µM (inactive) in the assay on NCI-H460; 3.85 µM (inactive) in the assay with SK-MEL-28. Further, the GI50 in the assay on U-251 was 2.56 µM (inactive); in the assay on M14 it was 4.06 µM (inactive); with A498 it was 2.47 µM (inactive); with HT-29, 2.7 µM (inactive); with ACHN it was 2.51 µM (inactive); in the assay with IGROV-1, 5.3 µM (inactive). Moreover, the GI50 is 2.1 µM (inactive) in the assay with NCI-H226 and 2.43 µM (inactive) with OVCAR-5.
Consider `O=C(Cc1nc2ccccc2o1)C(=O)Nc1ccc(Cl)cc1Cl`, for which the GI50 is 49.2 µM (inactive) in the assay on SNB-75; > 100 µM (inactive) in the assay with UACC-257; > 100 µM (inactive) in the assay with HOP-92; > 100 µM (inactive) in the assay on KM-20L2; > 100 µM (inactive) with NCI-H460; > 100 µM (inactive) in the assay with SK-MEL-28. Further, the GI50 with U-251, in the assay with M14, with A498, in the assay on HT-29, in the assay on ACHN and in the assay with IGROV-1 was > 100 µM (inactive) in each case. The GI50 with NCI-H226 and in the assay on OVCAR-5 was > 100 µM (inactive) each time.
As to `O=Cc1cc2c(s1)C(=O)c1sccc1C2=O`, the GI50 was 0.19 µM (active) in the assay on SNB-75; 0.564 µM (active) with MCF7; 2.08 µM (inactive) in the assay on PC-3; 0.345 µM (active) in the assay with UACC-257; 1.46 µM (inactive) in the assay with HOP-92; 0.231 µM (active) in the assay on Hs-578T. In addition, the GI50 in the assay with DU-145 is 0.18 µM (active); in the assay with KM-20L2, 2.1 µM (inactive); in the assay on NCI-H460, 1.32 µM (inactive); in the assay with SK-MEL-28 it was 0.176 µM (active); in the assay on U-251, 0.314 µM (active); in the assay with M14, 0.0403 µM (active). For the same compound, the GI50 is 1.37 µM (inactive) with A498; 1.88 µM (inactive) in the assay with HT-29; 0.585 µM (active) with ACHN; 1.49 µM (inactive) in the assay with IGROV-1; 1.79 µM (inactive) in the assay on NCI-H226; 0.792 µM (active) with MDA-MB-231. Moreover, the GI50 in the assay with OVCAR-5 is 0.865 µM (active).
In the case of `CC1(C)C(=O)/C=C\C(=O)C(C)(C)C2=CC=C(O2)C(C)(C)C(=O)C(Br)C(Br)C(=O)C(C)(C)C2=CC=C1O2` (stereo unspecified), the GI50 in the assay on SNB-75 was 51.6 µM (inactive); with MCF7, 33.6 µM (inactive); with BT-549, 21.7 µM (inactive); in the assay on PC-3, > 100 µM (inactive); in the assay with UACC-257 it was 83.8 µM (inactive); with HOP-92, > 21.5 µM (inactive). Also, the GI50 was 30.1 µM (inactive) with Hs-578T; > 100 µM (inactive) in the assay on DU-145; > 100 µM (inactive) in the assay with KM-20L2; > 100 µM (inactive) in the assay with NCI-H460; 76.7 µM (inactive) in the assay on SK-MEL-28; 41.4 µM (inactive) with U-251. For the same compound, the GI50 is 58.7 µM (inactive) in the assay with M14; > 100 µM (inactive) in the assay with A498; 41.8 µM (inactive) in the assay with HT-29; > 46.5 µM (inactive) in the assay on ACHN; > 52.6 µM (inactive) with IGROV-1; > 100 µM (inactive) with NCI-H226. The GI50 in the assay on MDA-MB-231 was 27.4 µM (inactive); in the assay on OVCAR-5, > 100 µM (inactive).
Turning to `Oc1ncc(N(CCCl)CCCl)c(O)n1` [URACIL MUSTARD], the GI50 with SNB-75 is 26.3 µM (inactive); in the assay on MCF7, 14.6 µM (inactive); in the assay with BT-549, 38.5 µM (inactive); with PC-3, 57.3 µM (inactive); in the assay on UACC-257, 51.1 µM (inactive); in the assay on HOP-92, 23.8 µM (inactive). Also, the GI50 in the assay on Hs-578T was 91 µM (inactive); in the assay with DU-145 it was 22.3 µM (inactive); with KM-20L2 it was 69.5 µM (inactive); in the assay on NCI-H460 it was 3.48 µM (inactive); with SK-MEL-28 it was 67.8 µM (inactive); with U-251 it was 15.2 µM (inactive). The GI50 with M14 is 20.7 µM (inactive); in the assay on A498 it was 69.5 µM (inactive); with HT-29 it was 69.8 µM (inactive); in the assay on ACHN, 2.67 µM (inactive); with IGROV-1, 81.3 µM (inactive); in the assay with NCI-H226, 48.2 µM (inactive). The GI50 in the assay with MDA-MB-231 is 81.3 µM (inactive); in the assay with OVCAR-5, 39.3 µM (inactive).

Values taken from ChEMBL document CHEMBL1201862, “PubChem BioAssay data set” (2004).
